Source: article PMC9322052, “Synthesis and Biological Activity Screening of Newly Synthesized Trimethoxyphenyl-Based Analogues as Potential Anticancer Agents” (Molecules, 2022)

Tests used:
[1] = system: hepatocellular carcinoma HepG2 cell line; experiment: MTT cytotoxicity assay, HepG2; assay type: cell-based, human; details: Homo sapiens, HepG2, 24 h, 24 h treatment, mean ± SE
Protocol: All the newly synthesized analogs were evaluated for their in vitro cytotoxicity against the hepatocellular carcinoma HepG2 cell line. Podo was utilized as a reference control in the current study. […] The N-phenyl triazinone derivative 9 was further investigated for its cytotoxic effects against normal liver cell line HL-7702.
MTT colorimetric assay was carried out to investigate the impact of the newly synthesized compounds 2–11 on hepatocellular carcinoma (HepG2) and normal liver cell line (HL-7702) cell lines. See Section 3.3.1 in Supplementary Material.
3.3.1. Cytotoxic activity evaluation
To measure the cytotoxic activity of the synthesized derivatives 2a-11 in hepatocel-lular carcinoma (HepG2) cell line (ATCC Cat No. HB-8065) as well as normal human liver cell line HL-7702 (ATCC Cat. No. 77402), cell viability assay was assessed using MTT assay method. Cells at density of 1 x 104 were seeded in a 96-well plate at 37 °C for 24 h under 5% CO2. After incubation, the cells were treated with different concentrations of the test compounds 2a-11 and incubated for 24 h, then 20 μl of MTT solution at 5 mg/mL was applied and incubated for 4 h at 37 °C. Dimethyl sulphoxide (DMSO) in volume of 100 µl was added to each well to dissolve the purple formazan that had formed. The color inten-sity of the formazan product, which represents the growth condition of the cells, is quan-tified by using an ELISA plate reader (EXL 800, USA) at 570 nm absorbance. The experi-mental conditions were carried out with at least three replicates, and the experiments were repeated at least three times.
3.3.2. Tubulin inhibitions Assay
(§1) Compounds 9, 10 and 11 were evaluated for their tubulin inhibitory activity levels according to the manufacturer’s instructions using # abcam Human Beta-tubulin simplestep […]
3.3.3. Cell cycle analysis of compound 9
Cell cycle analysis in HepG2 cells was investigated using fluorescent Annexin V-FITC/ PI detection kit (BioVision EZCellTM Cell Cycle Analysis Kit Catalog #K920) by flow cytometry assay. HepG2 cells at a density of 2 × 10^5 per well were harvested and washed twice in PBS. After that, the cells were incubated at 37 °C and 5% CO2. […] Afterward, medium was stained with DNA flu-orochrome PI for 15 min at 37 °C. The samples were immediately analyzed using Facs Calibur flow cytometer (Becton and Dickinson, Heidelberg, Germany).
3.3.4. Apoptosis assay for compound 9
Apoptosis in HepG2 cells was investigated using fluorescent Annexin V-FITC/ PI de-tection kit (BioVision Annexin V-FITC Apoptosis Detection Kit, Catalog #: K101) by flow cy-tometry assay. HepG2 cells at a density of 2 × 10^5 per well were treated with compound 9 at its IC50 (μM) for 48 h, then the cells were harvested and stained with Annexin V-FITC/ PI dye for 15 min in the dark at 37 °C. The samples were immediately analyzed using FACS Calibur flow cytometer (Becton and Dickinson, Heidelberg, Germany).
3.3.5. Measurement of mitochondrial membrane potential (MMP) for compound 9 MMP was measured by FACS analysis using abcam ab113852TMRE Mitochondrial Membrane Potential Assay Kit with DiOC2(3) staining using MitoProbe™ DiOC2(3) Assay Kit for Flow Cytometry (M34150). After treatment with compound 9 at its IC50 concentra-tion, cells were stained with DiOC2(3) dye for 30 min in the incubator, then harvested and washed with PBS. DiOC2(3)-stained cells were represented with Annexin binding buffer and incubated at 37 °C for 15 min. The samples were immediately analyzed using cell […]
3.3.6. Effect on p53, Bax and Bcl-2 p53, Bax and Bcl2 enzyme activities in HepG2 cells were detected in the presence of com-pound 9 at its IC50 concentration (μM). The levels of the tumor suppressor gene p53, apoptotic markers Bax as well as the anti-apoptotic marker Bcl-2 were assessed using p53 ELISA kit, Human Bax ELISA kit and Bcl-2 Elisa kit. […]

HepG2 cells = experiment: Cell cycle analysis by PI staining / FACS; assay type: cell-based, human; details: 48 h
Protocol: It is well documented that exposure to microtubule targeting agents leads to the malformed mitotic spindle which eventually leads to cell cycle arrest at the G2/M phase and apoptosis induction. Thus, the effect of the selected candidate 9 on the cell cycle progression of the HepG2 cell line was examined by flow cytometry analysis (FACS). The HepG2 cell line was treated with the IC50 concentration of compound 9 for 48 h.
Cell cycle analysis in HepG2 cells was carried out by FACS analysis according to the manufacturer’s directions. See Section 3.3.3 in Supplementary Material.
Figure 3 Compound 9 induces G2/M phase disturbance in HepG2 cells. (A) HepG2 cells were treated with 1.38 μM of compound 9 for 48 h. […]
To measure the cytotoxic activity of the synthesized derivatives 2a-11 in hepatocel-lular carcinoma (HepG2) cell line (ATCC Cat No. HB-8065) as well as normal human liver cell line HL-7702 (ATCC Cat. No. 77402), cell viability assay was assessed using MTT assay method. […] The color inten-sity of the formazan product, which represents the growth condition of the cells, is quan-tified by using an ELISA plate reader (EXL 800, USA) at 570 nm absorbance. […]
as §1

In the case of `COc1ccc(C2=N/C(=C\c3cc(OC)c(OC)c(OC)c3)C(=O)NN2c2ccccc2)cc1OC` [Compound 9, (Z)-3-(3,4-Dimethoxyphenyl)-2-Phenyl-5-(3,4,5-Trimethoxybenzylidene)-1,2-Dihydro-1,2,4-Triazin-6(5H)-one], the IC50 [1] is reported as 1.38 ± 0.15 µM, the “G2/M cell population percentage” value (HepG2 cells; HepG2, 1.38 μM (IC50), control 13.28%) is reported as 30.83% and the “fold increase in G2/M cell population compared to untreated control” value (HepG2 cells; HepG2, IC50 concentration) is reported as about 3 fold.
